Data taken from patent EP4341264B1, “PYRROLOPIRIMIDINE DERIVATIVES AND THEIR USE IN THE TREATMENT OF LEISHMANIASIS” (Drugs for Neglected Diseases Initiative, priority 2021, dated 2022).
Like-named read-outs stand apart in the source and are kept apart here.

Columns and labels:
[1] = test system: L. infantum (MHOM/BR/2007/WC (L3015)); experiment: Leishmania clinical isolate panel screen (drug-susceptibility assay in infected macrophages); format: cell-based; conditions: Macrophage, read-out: IC50 Mean ± SEM
Method: (§1) Female Swiss mice (BW ~20 g) were purchased from a commercial source (Janvier France) and kept in quarantine for 1 week. The animals were housed in group and drinking water was available ad libitum. To harvest peritoneal macrophages, the mice were first stimulated by intraperitoneal injection of 1 mL of starch solution (2% in PBS). After 24 h, macrophages were collected in RPMI-1640 supplemented with 5% iFCS, 2% penicillin-streptomycin and 1% L-glutamine by peritoneal lavage and immediately distributed in a 96-well plate at a concentration of 30,000 cells/well. The cells were incubated for 24 h at 37°C and 5 % CO2 to allow cell attachment.
(§2) Strains of L. donovani, L. infantum, L. major, L. tropica, L. guyanensis and L. panamensis were selected based on their intrinsic susceptibility to the commonly used reference drugs and their geographic distribution. All strains were cultivated in HOMEM promastigote medium and sub-cultured twice weekly. Passage numbers were kept as low as possible to avoid loss of virulence. For infection of the macrophages, metacyclic promastigote cultures were examined light microscopically for the abundant presence of metacyclic promastigotes. Upon counting, promastigotes were centrifuged and diluted in RPMI-1640 to the desired concentration. The infection ratio varied based on the ability of the strain to adequately infect the host cells and ranged from 5 to 20 promastigotes per macrophage. Macrophages were infected by adding 100 µL promastigote suspension per well onto the macrophages. When ex vivo amastigotes were available (only for two lab strains), macrophages were infected at a ratio of 10/1.
(§3) Stock solutions of the DNDi lead compounds were prepared in 100% DMSO at 20 mM and robotically further diluted in water. Miltefosine (MIL) was included as reference and formulated in water at a concentration of 20 mM. The medium was discarded from the plates to remove any residual non-internalized promastigotes and replaced by fresh RPMI-1640 medium supplemented with iFBS, P/S and L-glutamine (as described above). Next, a 2-fold dilution series of each lead compound was added to the plate with 64 µM as the highest in test-concentration for the DNDi leads and 40 µM for MIL. The 96-well plates were further incubated at 34-37°C and 5% CO2. For staining, the culture medium was discarded, and the plates were left to dry for 2-4 hours. The cells were then fixated with methanol for 10 minutes and stained with a 1/5 Giemsa dilution in water for 15 minutes. The percentage infection-inhibition compared to a positive control (untreated infected macrophages) was microscopically determined and used to calculate the IC50 and IC90 values.

[2] = test system: L. major (MHOM/SA/85/JISH118); experiment: as above; format: cell-based; conditions: Macrophage, read-out: IC50 Mean ± SEM
Method: as §1, §2, §3

[3] = test system: L. infantum (MHOM/FR/96/LEM3323-cl4); experiment: as above; format: cell-based; conditions: Macrophage, read-out: IC50 Mean ± SEM
Method: as §1, §2, §3

[4] = test system: L. major (MHOM/IL/81/Friedlin); experiment: as above; format: cell-based; conditions: Macrophage, read-out: IC50 Mean ± SEM
Method: as §1, §2, §3

[5] = test system: L. guyanensis (MHOM/PE/02/PER 054/0); experiment: as above; format: cell-based; conditions: Macrophage, read-out: IC50 Mean ± SEM
Method: as §1, §2, §3

[6] = test system: L. tropica (MHOM/AF/2015/HTD7); experiment: as above; format: cell-based; conditions: Macrophage, read-out: IC50 Mean ± SEM
Method: as §1, §2, §3

[7] = test system: L. panamensis (MHOM/PA/71/LS94); experiment: as above; format: cell-based; conditions: Macrophage, read-out: IC50 Mean ± SEM
Method: as §1, §2, §3

[8] = test system: L. infantum (MHOM/ES/2016/LLM-2346); experiment: as above; format: cell-based; conditions: Macrophage, read-out: IC50 Mean ± SEM
Method: as §1, §2, §3

[9] = test system: L. donovani (MHOM/ NP/2003/BPK282/0-cl4); experiment: as above; format: cell-based; conditions: Macrophage, read-out: IC50 Mean ± SEM
Method: as §1, §2, §3

[10] = test system: L. donovani (MHOM/NP/03/BPK275/0-cl18); experiment: as above; format: cell-based; conditions: Macrophage, read-out: IC50 Mean ± SEM
Method: as §1, §2, §3

[11] = test system: L. infantum (LEM3323-cl4 PMM); experiment: as above; format: cell-based; conditions: Macrophage, read-out: IC50 Mean ± SEM
Method: as §1, §2, §3

[12] = test system: L. infantum (LEM3323-cl4 MIL); experiment: as above; format: cell-based; conditions: Macrophage, read-out: IC50 Mean ± SEM
Method: as §1, §2, §3

[13] = test system: L. donovani (MHOM/ET/67/L82); experiment: Intracellular amastigote susceptibility assay (primary peritoneal mouse macrophages); format: cell-based; conditions: Leishmania donovani, Macrophage; L. donovani (MHOM/ET/67/L82) amastigotes in mouse macrophages, 96-h incubation
Method: (§4) To obtain primary peritoneal macrophages, Swiss mice were stimulated by intraperitoneal injection of 1 mL 2% starch in PBS 48 h prior to cell collection. Animals were euthanized with a CO2 overdose and upon removal of the skin, 10 mL of RPMI-1640 (Life Technologies) was injected into the peritoneal cavity to collect the macrophages that were then seeded into 96-well plates at a final concentration of 30,000 cells/well in 100 µL of RPMI-1640 macrophage medium, supplemented with 5% iFCS, 2% penicillin/streptomycin and 1% L-glutamine (Life technologies). After 24 h, the cells were infected with spleen derived L. infantum (MHOM/MA(BE)/67/ITMAP263) or L. donovani (MHOM/ET/67/L82) amastigotes obtained from heavily infected donor hamsters. The amastigotes were purified using two centrifugation steps and diluted to obtain an infection ratio of 5:1 in RPMI-1640 cell culture medium. After incubation for 2 h, compound dilutions were added. Drug activity was evaluated after a 96-h incubation period without washing of the cells and without renewal of the drugged culture medium. Cells were stained with Giemsa for microscopic evaluation of cellular amastigote burdens. Percentage reduction compared to the burdens in the infected non-treated control wells was used as a measure for drug activity.

[14] = test system: L. infantum (MHOM/MA/67/ITMAP263); experiment: as above; format: cell-based; conditions: Leishmania infantum, Macrophage; L. infantum (MHOM/MA/67/ITMAP263) amastigotes in mouse macrophages, 96-h incubation
Method: as §4

L. infantum = experiment: VL hamster model in vivo efficacy (reduction of parasite load vs. control); conditions: 5 days
Method: The in vivo efficacy of the compounds C1, C3, C4, and miltefosine was evaluated in a VL hamster model infected with L. infantum. The in vivo studies were performed in accordance with the methods described by Van den Kerkhof et al. [IJP: Drugs and Drug Resistance, 2018, 8, Issue 1, 81-86]. Following treatment, the reduction of parasite load vs. control was determined in different body compartments (liver, spleen, and bone marrow) with results presented in Table 4. Table 4. Hamster in vivo efficacy

[15] = test system: L. donovani parasites in infected human macrophages; conditions: Peña et al. Sci. Rep. 2015, 5; cited from earlier work
[16] = test system: T. cruzi infected NIH-3T3 murine fibroblasts; conditions: Peña et al. Sci. Rep. 2015, 5; cited from earlier work
[17] = Visceral leishmaniasis, L. infantum (MHOM/BR/2007/WC (L3015)), Miltefosine: mean only
[18] = Cutaneous leishmaniasis, L. major (MHOM/SA/85/JISH118), Miltefosine: mean only
[19] = Visceral leishmaniasis, L. infantum (MHOM/FR/96/LEM3323-cl4), Miltefosine: mean only
[20] = Cutaneous leishmaniasis, L. major (MHOM/IL/81/Friedlin), Miltefosine: mean only
[21] = Cutaneous leishmaniasis, L. guyanensis (MHOM/PE/02/PER 054/0), Miltefosine: mean only
[22] = Cutaneous leishmaniasis, L. tropica (MHOM/AF/2015/HTD7), Miltefosine: mean only
[23] = Cutaneous leishmaniasis, L. panamensis (MHOM/PA/71/LS94), Miltefosine: mean only
[24] = Visceral leishmaniasis, L. infantum (MHOM/ES/2016/LLM-2346), Miltefosine: mean only
[25] = Visceral leishmaniasis, L. donovani (MHOM/ NP/2003/BPK282/0-cl4), Miltefosine: mean only
[26] = Visceral leishmaniasis, L. donovani (MHOM/NP/03/BPK275/0-cl18), Miltefosine: mean only

SMILES	IC50 [1, 17] [µM]	IC50 [2, 18] [µM]	IC50 [3, 19] [µM]	IC50 [4, 20] [µM]	IC50 [5, 21] [µM]	IC50 [6, 22] [µM]	IC50 [7, 23] [µM]	IC50 [8, 24] [µM]	IC50 [9, 25] [µM]	IC50 [10, 26] [µM]	IC50 [11] [µM]	IC50 [12] [µM]	IC50 [13] [µM]	IC90 [13] [µM]	IC50 [14] [µM]	IC90 [14] [µM]	% Parasite reduction Bone marrow (L. infantum; 25 mg/kg qd) [%]	% Parasite reduction Liver (L. infantum; 25 mg/kg qd) [%]	% Parasite reduction Spleen (L. infantum; 25 mg/kg qd) [%]	further results
COc1cc(C#N)ccc1-c1c(C)[nH]c2nc(N)nc(C)c12 [Compound C1, 4-(2-amino-4,6-dimethyl-7H-pyrrolo[2,3-d]pyrimidin-5-yl)-3-methoxybenzonitrile]	0.44 ± 0.24	3 ± 1.05	0.2 ± 0.08	0.5 ± 0.17	0.06 ± 0.03	1.49 ± 0.24	0.17 ± 0.11	0.69 ± 0.19	0.1 ± 0.17	0.15 ± 0.02	0.38 ± 0.07	0.35 ± 0.08	1.39	2.32	0.87	2.9				% Parasite reduction Bone marrow (L. infantum; 25 mg/kg bid): 98.9%; % Parasite reduction Liver (L. infantum; 25 mg/kg bid): 95.9%; % Parasite reduction Spleen (L. infantum; 25 mg/kg bid): 95.2%; % Parasite reduction Bone marrow (L. infantum; 50 mg/kg bid): 97.4%; % Parasite reduction Liver (L. infantum; 50 mg/kg bid): 99.2%; % Parasite reduction Spleen (L. infantum; 50 mg/kg bid): 95.3%
COc1nc(OCC(F)(F)F)cnc1-c1c(C)[nH]c2nc(N)nc(C)c12 [Compound C3, 5-[3-methoxy-5-(2,2,2-trifluoroethoxy)pyrazin-2-yl]-4,6-dimethyl-7H-pyrrolo[2,3-d]pyrimidin-2-amine]	0.82 ± 0.33	6.64 ± 0.61	0.33 ± 0.08	0.83 ± 0.34	0.12 ± 0.01	2.38 ± 0.42	0.26 ± 0.13	0.69 ± 0.36	0.32 ± 0.16	0.23 ± 0.1	0.54 ± 0.05	0.4 ± 0.14	1.57	6.48	1.58	3.48	86.7	98.4	99.0	% Parasite reduction Bone marrow (L. infantum; 12.5 mg/kg qd): 89.9%; % Parasite reduction Liver (L. infantum; 12.5 mg/kg qd): 96.1%; % Parasite reduction Spleen (L. infantum; 12.5 mg/kg qd): 98.4%
COc1ccccc1-c1c(C)[nH]c2nc(N)nc(C)c12 [TCMDC-143610]																				pIC50 [15]: 4.6; pIC50 [16]: 6.6
Cc1[nH]c2nc(N)nc(C)c2c1-c1ccc(C#N)c2c1OCO2 [Compound C4, 7-(2-amino-4,6-dimethyl-7H-pyrrolo[2,3-d]pyrimidin-5-yl)-1,3-benzodioxole-4-carbonitrile]											0.06 ± 0.02	0.07 ± 0.01	0.16	0.41	0.15	0.37	99.4	99.6	99.9	IC50 [1]: 0.05 ± 0.03 µM; IC50 [2]: 0.56 ± 0.26 µM; IC50 [3]: 0.05 ± 0.01 µM; IC50 [4]: 0.08 ± 0.02 µM; IC50 [5]: 0.01 µM; IC50 [6]: 0.3 ± 0.09 µM; IC50 [7]: 0.03 ± 0.01 µM; IC50 [8]: 0.17 ± 0.07 µM; IC50 [9]: 0.03 ± 0.03 µM; IC50 [10]: 0.04 ± 0.01 µM; % Parasite reduction Bone marrow (L. infantum; 6.25 mg/kg bid): 93.6%; % Parasite reduction Liver (L. infantum; 6.25 mg/kg bid): 96.9%; % Parasite reduction Spleen (L. infantum; 6.25 mg/kg bid): 97.6%; % Parasite reduction Bone marrow (L. infantum; 12.5 mg/kg bid): 99.6%; % Parasite reduction Liver (L. infantum; 12.5 mg/kg bid): 99.7%; % Parasite reduction Spleen (L. infantum; 12.5 mg/kg bid): 99.9%; % Parasite reduction Bone marrow (L. infantum; 50 mg/kg qd): 99.9%; % Parasite reduction Liver (L. infantum; 50 mg/kg qd): 99.7%; % Parasite reduction Spleen (L. infantum; 50 mg/kg qd): 99.9%
Cc1[nH]c2nc(N)nc(C)c2c1-c1ccc(F)c2c1OCO2 [Compound C2, 5-(7-fluoro-1,3-benzodioxol-4-yl)-4,6-dimethyl-7H-pyrrolo[2,3-d]pyrimidin-2-amine]													0.14	0.65	0.15	0.33				
